Data as given in patent publication US10975068B2, “6-aminopyridin-3-yl thiazoles as modulators of RORγT” (Janssen Pharmaceutica NV, priority 2016, dated 2021).
Read-outs that look alike come from different tables or passages of the source.

Columns and labels:
[1] = target: human RORγt ligand binding domain (RORγt LBD) (Homo sapiens (Human), UniProt P51449); assay: RORγt ThermoFluor® assay (thermal shift binding); details: read-out: ThermoFluor® Assay, Kd
Text: ThermoFluor® is a fluorescence based assay that estimates ligand binding affinities by measuring the effect of a ligand on protein thermal stability (Pantoliano, M. W., Petrella, E. C., Kwasnoski, J. D., Lobanov, V. S., Myslik, J., Graf, E., Carver, T., Asel, E., Springer, B. A., Lane, P., and Salemme, F. R. (2001) High-density miniaturized thermal shift assays as a general strategy for drug discovery. J Biomol Screen 6, 429-40, and Matulis, D., Kranz, J. K., Salemme, F. R., and Todd, M. J. (2005) Thermodynamic stability of carbonic anhydrase: measurements of binding affinity and stoichiometry using ThermoFluor. Biochemistry 44, 5258-66). This approach is applicable to a wide variety of systems, and rigorous in theoretical interpretation through quantitation of equilibrium binding constants (KD).
The shift in the melting point described as a ΔTm is proportional to the concentration and affinity of the ligand. The compound potency may be compared as a rank order of either ΔTm values at a single compound concentration or in terms of KD values, estimated from concentration response curves.
RORγt ThermoFluor® Assay Construct
For the RORγt construct used in the ThermoFluor® assay, numbering for the nucleotide sequences was based on the reference sequence for human RORγt, transcript variant 2, NCBI Accession: NM_001001523.1 (SEQ ID NO:1). Nucleotides 850-1635 (SEQ ID NO:2) coding for the wild type human RORγt ligand binding domain (RORγt LBD) were cloned into the pHIS1 vector, a modified pET E. coli expression vector (Accelagen, San Diego), containing an in-frame N-terminal His-tag and a TurboTEV protease cleavage site (ENLYFQG, SEQ ID NO:3) upstream of the cloned insert sequence. The amino acid sequence for the RORγt construct used in the Thermofluor® assay is shown as SEQ ID NO:4.
ThermoFluor® experiments were carried out using instruments owned by Janssen Research and Discovery, L.L.C. through its acquisition of 3-Dimensional Pharmaceuticals, Inc. 1,8-ANS (Invitrogen) was used as a fluorescent dye. Protein and compound solutions are dispensed into black 384-well polypropylene PCR microplates (Abgene) and overlayed with silicone oil (1 μL, Fluka, type DC 200) to prevent evaporation.
Bar-coded assay plates are robotically loaded onto a thermostatically controlled PCR-type thermal block and then heated at a typical ramp-rate of 1° C./min for all experiments. Fluorescence was measured by continuous illumination with UV light (Hamamatsu LC6) supplied via fiber optic and filtered through a band-pass filter (380-400 nm; >6 OD cutoff). Fluorescence emission of the entire 384-well plate was detected by measuring light intensity using a CCD camera (Sensys, Roper Scientific) filtered to detect 500±25 nm, resulting in simultaneous and independent readings of all 384 wells. Images were collected at each temperature, and the sum of the pixel intensity in a given area of the assay plate was recorded versus temperature. Reference wells contained RORγt without compounds, and the assay conditions were as follows: • 0.065 mg/mL RORγt • 60 μM 1,8-ANS • 100 mM Hepes, pH 7.0 • 10 mM NaCl • 2.5 mM GSH • 0.002% Tween-20
Project compounds were arranged in a pre-dosed mother plate (Greiner Bio-one) wherein compounds are serially diluted in 100% DMSO by 1:2 from a high concentration of 10 mM over 12 columns within a series (column 12 is a reference well containing DMSO, no compound). The compounds were robotically dispensed directly into assay plates (×=46 nL) using a Hummingbird capillary liquid handling instrument (Digilab). Following compound dispense, protein and dye in buffer was added to achieve the final assay volume of 3 μL, followed by 1 μL of silicone oil.

full-length human RORγt = full-length human RORγt (Homo sapiens (Human), UniProt P51449); assay: RORγt (full-length human) reporter assay, Conditions B or C; type: cell-based; details: for RORγt (FL) Reporter Assay B or C, % inhibition (value marked *): marked *: footnote not given; for IC50: read-out: RORγt (FL) Reporter Assay B or C, IC50; for inhibition at 3 µM: at 3 μM compound concentration, read-out: RORγt (FL) Reporter Assay B or C, % inhibition
Sequence of full-length human RORγt (P51449 other isoform, or with tags, fused parts or gaps): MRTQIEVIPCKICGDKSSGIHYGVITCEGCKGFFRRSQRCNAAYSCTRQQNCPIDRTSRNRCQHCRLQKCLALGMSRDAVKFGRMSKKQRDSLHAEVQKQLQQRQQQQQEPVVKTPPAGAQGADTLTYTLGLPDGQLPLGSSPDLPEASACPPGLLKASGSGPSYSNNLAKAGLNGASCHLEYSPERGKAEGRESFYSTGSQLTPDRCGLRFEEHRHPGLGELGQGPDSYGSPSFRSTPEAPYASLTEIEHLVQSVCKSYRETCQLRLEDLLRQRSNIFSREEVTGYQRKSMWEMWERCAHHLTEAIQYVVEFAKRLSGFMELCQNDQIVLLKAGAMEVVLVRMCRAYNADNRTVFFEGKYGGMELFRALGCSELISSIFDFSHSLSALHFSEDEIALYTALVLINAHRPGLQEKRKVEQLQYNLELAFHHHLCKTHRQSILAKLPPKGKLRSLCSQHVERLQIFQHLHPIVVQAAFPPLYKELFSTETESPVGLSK
Text: RORγt (Full-Length Human) Reporter Assay:
Cells used in this assay were transiently co-transfected with three different plasmids, one expressing the GAL4-DNA binding domain (DBD)-RORγt fusion protein under control of a CMV promoter (NH2-Gal4-DBD:RORC-COOH in pCMV-BD, Stratagene #211342), and two reporter plasmids—the firefly luciferase reporter under control of a GAL4 promoter (pFR-Luc 2×GAL4) and Renilla luciferase reporter under control of CMV promoter (pRL-CMV, Promega # E2261). The full-length coding sequence was used for human RORγt, i.e., nucleotides 142-1635 of human RORγt, transcript variant 2, NCBI Accession: NM_001001523.1 (SEQ ID NO:1). HEK293T cells were plated at 35,000 per well in 96-well plate in medium of DMEM with 10% FBS. After 18-22 hours incubation, the transfection was carried out by using a PEI solution with 170.5 ng total DNA/well (50 ng pCMV-BD-ROR plus 20 ng of pFR-Luc reporter and 0.5 ng of pRL-CMV reporter plus 100 ng Carrier DNA (Clontech #630440) for each well). 4-6 hours after transfection, cells were treated with compounds for overnight in the medium with final concentration of FBS 1.3% and DMSO 0.1%. After overnight (16 to 20 hours) incubation, media were removed and cells were lysed with 50 μL Glo Lysis Buffer (Promega) for 10-15 minutes followed by 10 minute incubation with 50 μL Dual Glo reagent (Promega) at room temperature. Firefly luciferase luminescence was measured using a BMG Pherastar plate reader. To each well, 50 μL Stop and Glo reagent was added and incubated for 10 minutes at room temperature. Renilla luminescence was measured using a BMG Pherastar plate reader. To calculate the effect of compounds on RORγt activity, firefly values were normalized against values of DMSO only and values of reference compound at saturating concentration, then further normalized against Renilla signals. IC50s were generated by plotting final Renilla normalized data against compound concentration and percent inhibition was calculated against DMSO control.
Cells used in this assay were transiently co-transfected with three different plasmids, one expressing the GAL4-DNA binding domain (DBD)-RORγt fusion protein under control of a CMV promoter (NH2-Gal4-DBD:RORC-COOH in pCMV-BD, Stratagene #211342), and two reporter plasmids—the firefly luciferase reporter under control of a GAL4 promoter (pFR-Luc 2×GAL4) and Renilla luciferase reporter under control of CMV promoter (pRL-CMV, Promega # E2261). The full-length coding sequence was used for human RORγt, i.e., nucleotides 142-1635 of human RORγt, transcript variant 2, NCBI Accession: NM_001001523.1 (SEQ ID NO:1). HEK293T cells were plated at 8750 cells per well in 384-well plate in medium of DMEM with 10% FBS. After 18-22 hours incubation, the transfection was carried out by using a PEI solution with 42.6 ng total DNA/well (12.5 ng pCMV-BD-ROR plus 5 ng of pFR-Luc reporter and 0.125 ng of pRL-CMV reporter plus 25 ng Carrier DNA (Clontech #630440) for each well). 4-6 hours after transfection, cells were treated with compounds for overnight in the medium with final concentration of FBS 1.3% and DMSO 0.1%. After overnight (16 to 20 hours) incubation, media were removed and cells were lysed with 20 μL Glo Lysis Buffer (Promega) for 10-15 minutes followed by 10 minute incubation with 20 μL Dual Glo reagent (Promega) at room temperature. Firefly luciferase luminescence was measured using a BMG Pherastar plate reader. To each well, 20 μL Stop and Glo reagent was added and incubated for 10 minutes at room temperature. Renilla luminescence was measured using a BMG Pherastar plate reader. To calculate the effect of compounds on RORγt activity, firefly values were normalized against values of DMSO only and values of reference compound at saturating concentration, then further normalized against Renilla signals.

Sequence of human RORγt ligand binding domain (RORγt LBD) (P51449 other isoform, or with tags, fused parts or gaps): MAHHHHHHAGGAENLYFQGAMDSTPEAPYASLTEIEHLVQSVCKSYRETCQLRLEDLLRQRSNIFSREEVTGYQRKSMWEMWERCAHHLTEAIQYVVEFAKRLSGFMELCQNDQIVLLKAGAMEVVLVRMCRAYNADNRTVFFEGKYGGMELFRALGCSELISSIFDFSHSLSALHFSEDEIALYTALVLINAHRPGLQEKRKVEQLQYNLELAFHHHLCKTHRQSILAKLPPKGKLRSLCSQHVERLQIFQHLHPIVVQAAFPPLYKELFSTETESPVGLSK

SMILES	Kd [1] [nM]	RORγt (FL) Reporter Assay B or C, % inhibition (value marked *) (full-length human RORγt; Conditions B or C)	IC50 (full-length human RORγt; Conditions B or C) [nM]	inhibition at 3 µM (full-length human RORγt) [%]	IC50 (full-length human RORγt) [nM]
[2H]C([2H])(NC(=O)c1nc(C(=O)N2CCC[C@@H]2C)c(-c2cnc(NC(C)(C)C)cc2C(F)(F)F)s1)C(C)(C)O [Example 181, (S)-5-(6-(tert-Butylamino)-4-(trifluoromethyl)pyridine-3-yl)-N-(2-hydroxy-2-methylpropyl-1,1-d2)-4-(2-methylpyrrolidine-1-carbonyl)thiazole-2-carboxamide]	1.1	112* %	8.5		
CC[C@H](Nc1cc(C(F)(F)F)c(-c2sc(C(=O)NCC(C)(C)O)nc2C(=O)N2CCCC[C@@H]2C)cn1)C(F)(F)F [Example 112, N-(2-Hydroxy-2-methylpropyl)-4-((S)-2-methylpiperidine-1-carbonyl)-5-(6-(((S)-1,1,1-trifluorobutan-2-yl)amino)-4-(trifluoromethyl)pyridin-3-yl)thiazole-2-carboxamide]	0.2	110* %	13		
C[C@H]1CCCCN1C(=O)c1nc(C(=O)NCC(C)(C)O)sc1-c1cnc(NCC(C)(C)C)cc1C(F)F [Example 114, (S)-5-(4-(Difluoromethyl)-6-(neopentylamino)pyridin-3-yl)-N-(2-hydroxy-2-methylpropyl)-4-(2-methylpiperidine-1-carbonyl)thiazole-2-carboxamide]	0.49	117* %	9.7		
CC[C@H](Nc1cc(C(F)F)c(-c2sc(C(=O)N[C@H](C)CO)nc2C(=O)N2CC(F)(F)C[C@@H]2C)cn1)C(F)(F)F [Example 423, 4-[(2S)-4,4-Difluoro-2-methyl-pyrrolidine-1-carbonyl]-5-[4-(difluoromethyl)-6-[[(1S)-1-(trifluoromethyl)propyl]amino]-3-pyridyl]-N-[(1R)-2-hydroxy-1-methyl-ethyl]thiazole-2-carboxamide]	1.1			103	38
CC[C@H](Nc1cc(C(F)F)c(-c2sc(C(=O)NC3CCOCC3)nc2C(=O)N2CCC[C@@H]2C)cn1)C(F)(F)F [Example 394, 5-[4-(Difluoromethyl)-6-[[(1S)-1-(trifluoromethyl)propyl]amino]-3-pyridyl]-4-[(2S)-2-methylpyrrolidine-1-carbonyl]-N-tetrahydropyran-4-yl-thiazole-2-carboxamide]	2			114	34
C[C@H]1CCCN1C(=O)c1nc(C(=O)NCCC(C)(C)O)sc1-c1cnc(NC(C)(C)C)cc1C(F)(F)F [Example 338, 5-[6-(tert-Butylamino)-4-(trifluoromethyl)-3-pyridyl]-N-(3-hydroxy-3-methyl-butyl)-4-[(2S)-2-methylpyrrolidine-1-carbonyl]thiazole-2-carboxamide]	3.9			107	7.7

Continued, values first:

Kd [1] [nM]	RORγt (FL) Reporter Assay B or C, % inhibition (value marked *) (full-length human RORγt; Conditions B or C)	IC50 (full-length human RORγt; Conditions B or C) [nM]	inhibition at 3 µM (full-length human RORγt) [%]	IC50 (full-length human RORγt) [nM]	SMILES
3.7	100* %	120			CC[C@@H](Nc1cc(C(F)F)c(-c2sc(C(=O)NCC(C)(C)O)nc2C(=O)N2CCC[C@@H]2C)cn1)C1CC1 (relative stereo) [Example 167, 5-(6-(((R*)-1-Cyclopropyl)amino)-4-(difluoromethyl)pyridine-3-yl)-N-(2-hydroxy-2-methylpropyl)-4-((S)-2-methylpyrrolidine-1-carbonyl)thiazole-2-carboxamide]
1.1			96	21	C[C@H]1CCCN1C(=O)c1nc(C(=O)N[C@H]2CCC[C@@H]2O)sc1-c1cnc(NC(C)(C)C)cc1C(F)F [Example 396, 5-[6-(tert-Butylamino)-4-(difluoromethyl)-3-pyridyl]-N-[(1S,2S)-2-hydroxycyclopentyl]-4-[(2S)-2-methylpyrrolidine-1-carbonyl]thiazole-2-carboxamide]
1.7			110	13	C[C@H]1CCCN1C(=O)c1nc(C(=O)N[C@H]2CC[C@H](O)C2)sc1-c1cnc(NC(C)(C)C)cc1C(F)F [Example 414, 5-[6-(tert-Butylamino)-4-(difluoromethyl)-3-pyridyl]-N-[(1S,3S)-3-hydroxycyclopentyl]-4-[(2S)-2-methylpyrrolidine-1-carbonyl]thiazole-2-carboxamide]
3.4			127	37	C[C@H]1CCCN1C(=O)c1nc(C(=O)NC2CCOCC2)sc1-c1cnc(NC(C)(C)C)cc1C(F)F [Example 412, 5-[6-(tert-Butylamino)-4-(difluoromethyl)-3-pyridyl]-4-[(2S)-2-methylpyrrolidine-1-carbonyl]-N-tetrahydropyran-4-yl-thiazole-2-carboxamide]
